The structures appear in SMILES notation. Read-outs that look alike come from different tables or passages of the source.

The values that follow come from patent US9204653B2, “5-fluoro pyrimidine derivatives” (DOW AGROSCIENCES LLC, priority 2008, dated 2015).

In test [1] the test system is Mycosphaerella graminicola; Anamorph: Septoria tritici; Bayer Code SEPTTR. Put plainly: Leaf blotch of wheat, foliar fungicide treatment, one day protectant (1DP) or three day curative (3DC). The conditions noted are these: Zymoseptoria tritici, rating of percent disease control. It counts as in vivo, Septoria tritici on wheat plants (variety Yuma).
Test [2] has as its system Cercospora beticola; Bayer Code CERCBE. Put plainly: Leaf spot of sugar beets. It counts as in vivo, Cercospora beticola on sugar beets (variety HH-88). The note with it: 24 h, % disease control rating, one day protectant; for pest or weed control at 25 ppm: read-out: CERCBE 1 DP 25 ppm; for pest or weed control at 75 ppm: read-out: CERCBE 1 DP 75 ppm.
In test [3] the test system is Venturia inaequalis; Bayer Code VENTIN. Put plainly: Apple scab. The note with it: 24 h, % disease control rating, one day protectant; for pest or weed control at 25 ppm: read-out: VENTIN 1 DP 25 ppm; for pest or weed control at 75 ppm: read-out: VENTIN 1 DP 75 ppm. It counts as in vivo.
[4] abbreviates: 24 h, one day protectant (1DP), read-out: SETTTR 1DP 25 ppm.
[5] abbreviates: 24 h, one day protectant (1DP), read-out: SEPTTR 1DP 100 ppm.
[6] abbreviates: 72 h, three day curative (3DC), read-out: SEPTTR 3DC 25 ppm.
Where [7] appears, read: 72 h, three day curative (3DC), read-out: SEPTTR 3DC 100 ppm.
[8] abbreviates: 24 h, one day protectant, read-out: SETTTR 1DP 25 ppm.
Setting [9] is: 24 h, one day protectant, read-out: SEPTTR 1DP 100 ppm.
[10] abbreviates: 72 h, three day curative, read-out: SEPTTR 3DC 25 ppm.
The mark [11] stands for this setting: 72 h, three day curative, read-out: SEPTTR 3DC 100 ppm.

Regarding `CN(C)/C=N/c1nc(OCc2cccc(C#N)c2)ncc1F` [Compound 418], the pest or weed control at 25 ppm was 76 to 100% in test [1] (setting [4]), 76 to 100% in test [1] (setting [6]), 0 to 25% in test [2] and 51 to 75% in test [3]. The pest or weed control at 100 ppm in test [1] (setting [5]) and in test [1] (setting [7]) was 76 to 100% throughout. The pest or weed control at 75 ppm in test [2] lay in the range of 0 to 25%; in test [3], 51 to 75%.

For `Cc1nc(COc2ncc(F)c(N)n2)cs1` [Compound 436], the pest or weed control at 25 ppm in test [1] (setting [4]) was in the range of 76 to 100%; in test [1] (setting [6]) it was 76 to 100%; in test [2], 51 to 75%; in test [3], 76 to 100%. The pest or weed control at 100 ppm in test [1] (setting [5]) and in test [1] (setting [7]) was 76 to 100% in each case. In addition, the pest or weed control at 75 ppm in test [2] was 26 to 50%; in test [3], 76 to 100%.

Consider `CCOCNc1nc(OCc2ccc(OC)c(F)c2)ncc1F` [Compound 452], for which the pest or weed control at 25 ppm in test [1] (setting [4]) is 76 to 100%; in test [1] (setting [6]), 76 to 100%; in test [2], 0 to 25%; in test [3], 0 to 25%. The pest or weed control at 100 ppm in test [1] (setting [5]) and in test [1] (setting [7]) was 76 to 100% each time. The pest or weed control at 75 ppm is 0 to 25% in test [2] and 26 to 50% in test [3].

With `CC(C)(C)OC(=O)NOc1ncc(F)c(N)n1` [Compound 481], the pest or weed control at 25 ppm in test [1] (setting [4]) lay in the range of 76 to 100%; in test [1] (setting [6]) it was 76 to 100%; in test [2], 26 to 50%; in test [3] it was 76 to 100%. The pest or weed control at 100 ppm in test [1] (setting [5]) and in test [1] (setting [7]) was 76 to 100% in each case. The pest or weed control at 75 ppm in test [2] and in test [3] was 76 to 100% throughout.

As for `CC(Oc1ncc(F)c(/N=C/N(C)C)n1)c1ccc(F)cc1` (centres unmarked) [Compound 483], the pest or weed control at 25 ppm in test [1] (setting [4]) is 76 to 100%; in test [1] (setting [6]) it was 76 to 100%; in test [2], 0 to 25%; in test [3] it was 26 to 50%. The pest or weed control at 100 ppm in test [1] (setting [5]) and in test [1] (setting [7]) was 76 to 100% throughout. Further, the pest or weed control at 75 ppm in test [2] was in the range of 0 to 25%; in test [3], 76 to 100%.

Turning to `COc1ncc(Oc2ncc(F)c(N)n2)cn1` [Compound 488], the pest or weed control at 25 ppm in test [1] (setting [4]) fell in the range of 0 to 25%; in test [1] (setting [6]) it was 0 to 25%; in test [2], 0 to 25%; in test [3] it was 26 to 50%. The pest or weed control at 100 ppm in test [1] (setting [5]) and in test [1] (setting [7]) was 0 to 25% in each case. The pest or weed control at 75 ppm in test [2] lay within 0 to 25%; in test [3], 26 to 50%.

`COc1ccccc1CCOc1ncc(F)c(N)n1` [Compound 524]: the pest or weed control at 25 ppm in test [1] (setting [4]) fell in the range of 0 to 25%; in test [1] (setting [6]), 0 to 25%; in test [2], 0 to 25%; in test [3] it was 51 to 75%. The pest or weed control at 100 ppm in test [1] (setting [5]) and in test [1] (setting [7]) was 51 to 75% throughout. Moreover, the pest or weed control at 75 ppm in test [2] lay in the range of 0 to 25%; in test [3], 51 to 75%.

As to `Cc1ccc(COc2ncc(F)c(NN)n2)cc1` [Compound 538], the pest or weed control at 25 ppm in test [1] (setting [4]) lay within 26 to 50%; in test [1] (setting [6]), 51 to 75%; in test [2], 0 to 25%; in test [3] it was 26 to 50%. Moreover, the pest or weed control at 100 ppm in test [1] (setting [5]) lay in the range of 51 to 75%; in test [1] (setting [7]), 76 to 100%. Also, the pest or weed control at 75 ppm was 0 to 25% in test [2] and 51 to 75% in test [3].

Take `Nc1nc(OCc2cc3ccccc3o2)ncc1F` [Compound 554]: the pest or weed control at 25 ppm in test [1] (setting [8]) was 26 to 50%; in test [1] (setting [10]) it was 26 to 50%; in test [2], 0 to 25%; in test [3] it was 76 to 100%. Moreover, the pest or weed control at 100 ppm in test [1] (setting [9]) and in test [1] (setting [11]) was 76 to 100% throughout. Also, the pest or weed control at 75 ppm in test [2] is 51 to 75%; in test [3] it was 76 to 100%.

For `Nc1nc(OC2CCCc3cccnc32)ncc1F` (centres unmarked) [Compound 560], the pest or weed control at 25 ppm in test [1] (setting [8]), in test [1] (setting [10]), in test [2] and in test [3] was 0 to 25% each time. For the same molecule, the pest or weed control at 100 ppm was 26 to 50% in test [1] (setting [9]) and 76 to 100% in test [1] (setting [11]). The pest or weed control at 75 ppm in test [2] was in the range of 26 to 50%; in test [3], 76 to 100%.

As for `C=CCc1cc(COc2ncc(F)c(N)n2)cc(OC)c1OC` [Compound 569], the pest or weed control at 25 ppm in test [1] (setting [8]) is 76 to 100%; in test [1] (setting [10]), 51 to 75%; in test [2], 26 to 50%; in test [3], 76 to 100%. In addition, the pest or weed control at 100 ppm in test [1] (setting [9]) and in test [1] (setting [11]) was 76 to 100% throughout. In addition, the pest or weed control at 75 ppm in test [2] and in test [3] was 76 to 100% each time.

On to `CN(C)/C=N/c1nc(OCc2cccs2)ncc1F` [Compound 570], for which the pest or weed control at 25 ppm in test [1] (setting [8]) was in the range of 76 to 100%; in test [1] (setting [10]) it was 76 to 100%; in test [2], 0 to 25%; in test [3], 26 to 50%. Also, the pest or weed control at 100 ppm in test [1] (setting [9]) and in test [1] (setting [11]) was 76 to 100% throughout. Further, the pest or weed control at 75 ppm in test [2] fell in the range of 26 to 50%; in test [3], 76 to 100%.

Take `Nc1nc(OCc2cnc(Cl)c(Cl)c2)ncc1F` [Compound 582]: the pest or weed control at 25 ppm in test [1] (setting [8]) lay in the range of 76 to 100%; in test [1] (setting [10]), 76 to 100%; in test [2], 51 to 75%; in test [3] it was 76 to 100%. For the same molecule, the pest or weed control at 100 ppm in test [1] (setting [9]) and in test [1] (setting [11]) was 76 to 100% each time. Further, the pest or weed control at 75 ppm fell in the range of 51 to 75% in test [2] and 76 to 100% in test [3].

Take `CCn1nccc1Oc1ncc(F)c(N)n1` [Compound 584]: the pest or weed control at 25 ppm is 0 to 25% in test [1] (setting [8]), 0 to 25% in test [1] (setting [10]), 26 to 50% in test [2] and 26 to 50% in test [3]. Also, the pest or weed control at 100 ppm in test [1] (setting [9]) and in test [1] (setting [11]) was 76 to 100% in each case. For the same molecule, the pest or weed control at 75 ppm in test [2] and in test [3] was 26 to 50% throughout.

As to `Nc1nc(Oc2cccc(Cl)c2)ncc1F` [Compound 593], the pest or weed control at 25 ppm lay within 0 to 25% in test [1] (setting [8]), 26 to 50% in test [2] and 76 to 100% in test [3]. For the same molecule, the pest or weed control at 100 ppm in test [1] (setting [9]) lay within 51 to 75%. Besides, the figures for the pest or weed control at 75 ppm in test [2] and in test [3] were 51 to 75% and 76 to 100%, respectively.

As to `Fc1cnc(OCc2ccccc2)nc1/N=C/N1CCOCC1` [Compound 626], the pest or weed control at 25 ppm in test [1] (setting [8]) lay within 76 to 100%; in test [1] (setting [10]) it was 76 to 100%; in test [2] it was 0 to 25%; in test [3], 26 to 50%. Also, the pest or weed control at 100 ppm in test [1] (setting [9]) and in test [1] (setting [11]) was 76 to 100% each time. In addition, the pest or weed control at 75 ppm in test [2] lay in the range of 0 to 25%; in test [3], 76 to 100%.

For the molecule `Nc1nc(OCc2csc3ccccc23)ncc1F` [Compound 630], the pest or weed control at 25 ppm in test [1] (setting [8]) lay in the range of 76 to 100%; in test [1] (setting [10]), 76 to 100%; in test [2] it was 0 to 25%; in test [3] it was 51 to 75%. The pest or weed control at 100 ppm in test [1] (setting [9]) and in test [1] (setting [11]) was 76 to 100% in each case. The results for the pest or weed control at 75 ppm in test [2] and in test [3] were 0 to 25% and 76 to 100%, respectively.

In the case of `C=CC(C)Oc1ncc(F)c(N)n1` (centres unmarked) [Compound 631], the pest or weed control at 25 ppm in test [1] (setting [8]), in test [1] (setting [10]), in test [2] and in test [3] was 0 to 25% in each case. In addition, the pest or weed control at 100 ppm in test [1] (setting [9]) and in test [1] (setting [11]) was 0 to 25% throughout. Besides, the figures for the pest or weed control at 75 ppm in test [2] and in test [3] were 0 to 25% and 26 to 50%, respectively.

`Nc1nc(OCCCc2ccccn2)ncc1F` [Compound 635]: the pest or weed control at 25 ppm in test [1] (setting [8]) lay in the range of 26 to 50%; in test [1] (setting [10]), 0 to 25%; in test [2], 26 to 50%; in test [3] it was 26 to 50%. For the same molecule, the pest or weed control at 100 ppm in test [1] (setting [9]) and in test [1] (setting [11]) was 76 to 100% throughout. For the same molecule, the pest or weed control at 75 ppm in test [2] lay in the range of 26 to 50%; in test [3], 76 to 100%.

For the molecule `COc1ccc(Oc2ncc(F)c(NC(C)=O)n2)cc1` [Compound 649], the pest or weed control at 25 ppm was in the range of 0 to 25% in test [1] (setting [8]), 0 to 25% in test [1] (setting [10]), 0 to 25% in test [2] and 26 to 50% in test [3]. For the same molecule, the pest or weed control at 100 ppm in test [1] (setting [9]) fell in the range of 26 to 50%; in test [1] (setting [11]) it was 76 to 100%. Moreover, the figures for the pest or weed control at 75 ppm in test [2] and in test [3] were 0 to 25% and 26 to 50%, respectively.
